Patent publication US6410547B1, “Phenylpyridine derivatives useful as phosphodiesterase inhibitors” (Novartis AG, priority 1996, dated 2002)
Counter-ions that a name gives are not always drawn.

| melting point | Compound |
| --- | --- |
| 156 to 210 °C | COc1ccc(-c2ccncc2)cc1-c1cccc(Cl)c1 (as salt: hydrochloride) [Example 7, 4-[2-(Methoxy)-3′-(chloro)biphenyl-5-yl]pyridine] |
| 184 to 204 °C | COc1ccc(-c2ccncc2)cc1-c1cccc(Oc2ccccc2)c1 (as salt: hydrochloride) [Example 9, 4-[2-(Methoxy)-3′-(phenoxy)biphenyl-5-yl]pyridine] |
| 173 to 218 °C | COc1ccc(-c2ccncc2)cc1-c1ccc(Oc2ccccc2)cc1 (as salt: hydrochloride) [Example 10, 4-[2-(Methoxy)4′-(phenoxy)biphenyl-5-yl]pyridine] |
| 115 °C | COc1ccc(-c2ccncc2)cc1-c1ccc(F)c(Cl)c1 (as salt: hydrochloride) [Example 11, 4-[2-(Methoxy)-3′-(chloro)4′-(fluoro)biphenyl-5-yl]pyridine] |
| 187 to 192 °C | COc1ccc(-c2ccncc2)cc1-c1ccc2nonc2c1 [Example 5, 4-[4-Methoxy-3-(5-benzofurazanyl)phenyl]pyridine] |
| 106 to 108 °C | CCOC(=O)c1ccc(-c2ccc(OC)c(-c3cccc([N+](=O)[O-])c3)c2)cc1 [Example 13, 4′-Methoxy-3′-(3-nitrophenyl)-[1,1′-biphenyl]-4-carboxylic acid, ethyl ester] |
| 87 to 89 °C | CCOC(=O)c1cccc(-c2ccc(OC)c(-c3cccc([N+](=O)[O-])c3)c2)c1 [Example 14, 4′-Methoxy-3′-(3-nitrophenyl)-[1,1′-biphenyl]-3-carboxylic acid, ethyl ester] |
| 88 to 90 °C | CCOC(=O)c1ccc(-c2ccc(OC)c(-c3cccc([N+](=O)[O-])c3)c2)cc1C [Example 15, 4′-Methoxy-3-methyl-3′-(3-nitrophenyl)-[1,1′-biphenyl]-4-carboxylic acid, ethyl ester] |
| 166 to 168 °C | CCOC(=O)c1ccc(-c2ccc(OC)c(-c3ccc4nonc4c3)c2)cc1 [Example 16, 3′-(5-Benzofurazanyl)-4′-methoxy-[1,1′-biphenyl]-4-carboxylic acid, ethyl ester] |
| 131 to 136 °C | COc1ccc(-c2ccc(C(=O)OCC(C)(C)C)cc2)cc1-c1ccc2nonc2c1 [Example 17, 3′-(5-Benzofurazanyl)-4′-methoxy-[1,1′-biphenyl]-4-carboxylic acid, 2,2-dimethylpropyl ester] |
| 223 to 228 °C | COc1ccc(-c2cccc(C(=O)O)c2)cc1-c1cccc([N+](=O)[O-])c1 [Example 19, 4′-Methoxy-3′-(3-nitrophenyl)-[1,1′-biphenyl]-3-carboxylic acid] |
| 278 to 281 °C | COc1ccc(-c2ccc(C(=O)O)c(C)c2)cc1-c1cccc([N+](=O)[O-])c1 [Example 20, 4′-Methoxy-3-methyl-3′-(3-nitrophenyl)-[1,1′-biphenyl]-4-carboxylic acid] |
| > 300 °C | COc1ccc(-c2ccc(C(=O)O)cc2)cc1-c1ccc2nonc2c1 [Example 21, 3′-(5-Benzofurazanyl)-4′-methoxy-[1,1′-biphenyl]-4-carboxylic acid] |
| 250 to 252 °C | COc1ccc(-c2ccc(C(=O)O)cc2)cc1-c1cccc(Cl)c1 [Example 22, 4′-Methoxy-3′-(3-chlorophenyl)-[1,1′-biphenyl]-4-carboxylic acid] |
| 280 to 285 °C | COc1ccc(-c2ccc(C(=O)O)cc2)cc1-c1cccc(C#N)c1 [Example 23, 4′-Methoxy-3′-(3-cyanophenyl)-[1,1′-biphenyl]-4-carboxylic acid] |
| 201 to 205 °C | COc1ccc(-c2ccc(C(N)=O)cc2)cc1-c1cccc([N+](=O)[O-])c1 [Example 24, 4′-Methoxy-3′-(3-nitrophenyl)-[1,1′-biphenyl]-4-carboxamide] |
| 118 to 120 °C | COc1ccc(-c2cccc(C(N)=O)c2)cc1-c1cccc([N+](=O)[O-])c1 [Example 25, 4′-Methoxy-3′-(3-nitrophenyl)-[1,1′-biphenyl]-3-carboxamide] |
| 179 to 184 °C | COc1ccc(-c2ccc(C(N)=O)c(C)c2)cc1-c1cccc([N+](=O)[O-])c1 [Example 26, 4′-Methoxy-3-methyl-3′-(3-nitrophenyl)-[1,1′-biphenyl]-4-carboxamide] |
| 171 to 172 °C | CNC(=O)c1ccc(-c2ccc(OC)c(-c3cccc([N+](=O)[O-])c3)c2)cc1 [Example 27, N-Methyl-4′-methoxy-3′-(3-nitrophenyl)-[1,1′-biphenyl]-4-carboxamide] |
| 190 to 196 °C | COc1ccc(-c2ccc3nccn3c2)cc1-c1ccc2nonc2c1 [Example 28, 6-[4-Methoxy-3-(5-benzofurazanyl)phenyl]imidazo[1,2-a]pyridine] |
